The results in this text go back to patent publication US20070265164A1, “Active Substances for Increasing Pathogenic Defense in Plants and Methods for the Detection Thereof” (Bayer Cropscience GmbH, priority 2004, published 2007).

Assay [1] has as its system jasmonic acid biosynthesis. The assay is described as follows: GEP, induction pattern of the jasmonic acid biosynthesis genes. The conditions noted are these: compared with the other safeners and resistance inductors. Type of assay: in vivo, barley. Here is the method: Barley plants (cv. Baronesse) were grown in compost-filled pots (diameter: 10 cm) for 10 days in a controlled-environment cabinet under defined light, humidity and temperature conditions (white light, 70% atmospheric humidity, 24° C.). At the time of spray application, the seedlings were approximately 15 cm in size. The test substances selected in this example were molecules which differ markedly in their structure and which have a well documented pronounced safener effect, and other molecules which are known from the literature to have an effect on plant stress and pathogen tolerance (Table 1). The substances were prepared as stock solutions in DMSO (dimethyl sulfoxide) at c=10 mg/ml). This was used for preparing dilutions in water supplemented with 0.2% Agrotin (comprises polyvinyl alcohol, silicones, polysaccharides and pH regulators, manufacturer: Bayer CropScience AG, Monheim, Germany), as wetter, to give the application rates shown in the table. The amount of liquid for the spray application was 800 μl per pot, corresponding to 800 l/ha. For each 800 μl of spray mixture, 16 μl of EC premix: diacetone alcohol=1:6 were additionally added as formulation auxiliaries. The substances listed in Table 1 were applied to the leaves by means of a pneumatic spray pistol. […] The fluorescent data obtained were analyzed with the software Microarray Suite 5 from Affymetrix. […]

Another assay has as its system Rhopalosiphum padi. The assay is described as follows: Repellent effect of safener-treated plants on phytopathogenic insects. Type of assay: in vivo. The following applies: barley sprayed with 150 g a.i./ha, infested 6 h or 24 h after application, average. Here is the method:
Barley plants (cv. Baronesse) were grown as described in Example 1 and, after 10 days, treated by spray application with 150 g a.i./ha of isoxadifen-ethyl (S 3) or blank formulation. The experiments were carried out in replications of in each case 10 pots.
6 hours or 24 hours after the substance had been applied, all pots were infested uniformly with a population of the phytopathogenic aphid Rhopalosiphum padi. The experiments were evaluated after 7 days and 14 days by counting the animals on the leaves.

In the next assay the test system is Oxophytodienoate (OPDA). The assay is described as follows: Oxophytodienoate (OPDA) concentration in leaves of treated plants, GC-MS/MS. Type of assay: in vivo, barley. Here is the method:
Barley plants (cv. Baronesse) were grown under the conditions described in Example 1 and treated by spray application with safener isoxadifen-ethyl (S 3). The application rates were chosen as follows:
(1) 30 [g a.i./ha]; (2) 150 [g a.i./ha]; (3) blank formulation (no active ingredient)
[…] All samples were designed in each case as replications of 3 pots.
The octadecanoates and jasmonates were processed from the leaves following a procedure described in the literature (Müller A, Düchting P and Weiler E W (2002)), A multiplex GC-MS/MS technique for the sensitive and quantitative single-run analysis of acidic phytohormones and related compounds, and its application to Arabidopsis thaliana. Planta, 216, 44-56).
300 mg of plant material were extracted for each measuring point.
50 pmol [^13C]2-JA and 100 pmol [17,17,17,18,18-^2H]-cis-OPDA were applied as internal standards. The extracts were purified via aminopropyl anion-exchange chromatography in miniature solid-phase exchanger columns which had been prepared in-house.
The results are shown in Tables 3a to 3d, the values shown being in each case means of the 3 applications.

The test system of the next assay is Jasmonate (JA). The assay is described as follows: Jasmonate (JA) concentration in leaves of treated plants, GC-MS/MS. Type of assay: in vivo, barley. The conditions noted are these: 0 hours.

In the case of `CCOC(=O)C1=NOC(c2ccccc2)(c2ccccc2)C1` [S3, Isoxadifen-ethyl], the “Effect on jasmonic acid biosynthesis (induction pattern)” value in assay [1] was “most pronounced”. Also, the “Aphid populations less than the controls” value in the assay on Rhopalosiphum padi (after 7 days) was 50%; in the assay on Rhopalosiphum padi (after 14 days), 70%. The “Oxophytodienoate (OPDA) concentration” value with Oxophytodienoate (OPDA) (30 g a.i/ha, 0 hours) was 2500 pmol/g leaf tissue; in the assay with Oxophytodienoate (OPDA) (30 g a.i/ha, 1 hour), 6500 pmol/g leaf tissue; with Oxophytodienoate (OPDA) (30 g a.i/ha, 2 hours), 3750 pmol/g leaf tissue; with Oxophytodienoate (OPDA) (30 g a.i/ha, 4 hours), 7000 pmol/g leaf tissue; with Oxophytodienoate (OPDA) (30 g a.i/ha, 6 hours), 9000 pmol/g leaf tissue; with Oxophytodienoate (OPDA) (150 g a.i./ha, 0 hours), 2600 pmol/g leaf tissue. Besides, the “Oxophytodienoate (OPDA) concentration” value is recorded as 2800 pmol/g leaf tissue in the assay with Oxophytodienoate (OPDA) (150 g a.i./ha, 1 hour); 1800 pmol/g leaf tissue with Oxophytodienoate (OPDA) (150 g a.i./ha, 2 hours); 2200 pmol/g leaf tissue in the assay with Oxophytodienoate (OPDA) (150 g a.i./ha, 4 hours); 5100 pmol/g leaf tissue in the assay with Oxophytodienoate (OPDA) (150 g a.i./ha, 6 hours); 2400 pmol/g leaf tissue in the assay on Oxophytodienoate (OPDA) (150 g a.i./ha, 12 hours); 5100 pmol/g leaf tissue with Oxophytodienoate (OPDA) (150 g a.i./ha, 24 hours). Further, in the assay on Oxophytodienoate (OPDA) (150 g a.i./ha, 48 hours), the “Oxophytodienoate (OPDA) concentration” value is 1900 pmol/g leaf tissue. Moreover, the “Increase in OPDA concentration relative to blank formulation samples” value with Oxophytodienoate (OPDA) (maximum over rates and times) is at most 5 times. The “Oxophytodienoate (OPDA) concentrations, range over the experiment” value in the assay with Oxophytodienoate (OPDA) (summary of Tables 3a, 3b, all rates and times) is reported as 1800-9000 pmol/g leaf tissue. The “Jasmonate (JA) concentration” value in the assay on Jasmonate (JA) (30 g a.i/ha) and in the assay with Jasmonate (JA) (150 g a.i./ha) was 140 pmol/g leaf tissue in each case.
